# Like-named read-outs stand apart in the source and are kept apart here.
# How the values were obtained:
# [1] = injection; cited from earlier work
# [2] = test system: subjects with acute urticaria; conditions: for Developed other symptoms: No / Developed other symptoms: Yes / Needed additional medication: No / Needed additional medication: Yes / Needed medication prescribed at discharge: No / Needed medication prescribed at discharge: No medication prescribed / Needed medication prescribed at discharge: Yes / Recurrence of allergic symptoms: No / Recurrence of allergic symptoms: Yes / Returned to normal activity: No / Returned to normal activity: Yes: ITT; for Patient-rated pruritus severity score, 2 Hour Change from Baseline, mean (primary efficacy measure): LOCF
# [3] = 24 hrs after discharge, count (percentage)
# [4] = 48 hrs after discharge, count (percentage)
# [5] = ITT Population, listed as diphenhydramine
# [6] = ITT Population, before treatment
# [7] = ITT Population, count (percentage)
structure (smiles),measurement,setting,value
OCCOCCN1CCN(C(c2ccccc2)c2ccc(Cl)cc2)CC1 (stereo not shown) [hydroxyzine],Hemolysis,[1],significant problem
CN(C)CCOC(c1ccccc1)c1ccccc1 [Diphenhydramine Injection],Developed other symptoms: No,[2]; [3],107 (79.26)
same,Developed other symptoms: Yes,[2]; [3],22 (16.30)
same,Needed additional medication: No,[2]; [3],94 (69.63)
same,Needed additional medication: Yes,[2]; [3],35 (25.93)
same,Needed medication prescribed at discharge: No,[2]; [3],39 (28.89)
same,Needed medication prescribed at discharge: No medication prescribed,[2]; [3],21 (15.56)
same,Needed medication prescribed at discharge: Yes,[2]; [3],69 (51.11)
same,Recurrence of allergic symptoms: No,[2]; [3],58 (42.96)
same,Recurrence of allergic symptoms: Yes,[2]; [3],71 (52.59)
same,Returned to normal activity: No,[2]; [3],29 (21.48)
same,Returned to normal activity: Yes,[2]; [3],100 (74.07)
same,Developed other symptoms: No,[2]; [4],114 (84.44)
same,Developed other symptoms: Yes,[2]; [4],13 (9.63)
same,Needed additional medication: No,[2]; [4],101 (74.81)
same,Needed additional medication: Yes,[2]; [4],26 (19.26)
same,Needed medication prescribed at discharge: No,[2]; [4],31 (22.96)
same,Needed medication prescribed at discharge: No medication prescribed,[2]; [4],20 (14.81)
same,Needed medication prescribed at discharge: Yes,[2]; [4],76 (56.30)
same,Recurrence of allergic symptoms: No,[2]; [4],74 (54.81)
same,Recurrence of allergic symptoms: Yes,[2]; [4],53 (39.26)
same,Returned to normal activity: No,[2]; [4],22 (16.30)
same,Returned to normal activity: Yes,[2]; [4],105 (77.78)
same,Course of subject-rated sedation scores after treatment,[2]; ITT Population,remained above baseline through discharge
same,"Patient-rated pruritus severity score, 1 Hour Assessment, mean",[2]; ITT Population,0.83
same,"Patient-rated pruritus severity score, 1 Hour Change from Baseline, mean",[2]; ITT Population,−1.36
same,"Patient-rated pruritus severity score, 2 Hour Assessment, mean",[2]; ITT Population,0.70
same,"Patient-rated pruritus severity score, Discharge Assessment, mean",[2]; ITT Population,0.67
same,"Patient-rated pruritus severity score, Discharge Change from Baseline, mean",[2]; ITT Population,−1.52
same,"Physician-rated urticaria/erythema score, 1 Hour Assessment, mean",[2]; ITT Population,1.42
same,"Physician-rated urticaria/erythema score, 1 Hour Change from Baseline, mean",[2]; ITT Population,−0.42
same,"Physician-rated urticaria/erythema score, 2 Hour Assessment, mean",[2]; ITT Population,1.33
same,"Physician-rated urticaria/erythema score, 2 Hour Change from Baseline, mean",[2]; ITT Population,−0.51
same,"Physician-rated urticaria/erythema score, Discharge Assessment, mean",[2]; ITT Population,1.33
same,"Physician-rated urticaria/erythema score, Discharge Change from Baseline, mean",[2]; ITT Population,−0.51
same,"Subject-rated sedation score, 1 Hour Assessment, mean",[2]; ITT Population,1.10
same,"Subject-rated sedation score, 1 Hour Change from Baseline, mean",[2]; ITT Population,0.70
same,"Subject-rated sedation score, 2 Hour Assessment, mean",[2]; ITT Population,0.88
same,"Subject-rated sedation score, 2 Hour Change from Baseline, mean",[2]; ITT Population,0.49
same,"Subject-rated sedation score, Discharge Assessment, mean",[2]; ITT Population,0.86
same,"Subject-rated sedation score, Discharge Change from Baseline, mean",[2]; ITT Population,0.47
same,"Time spent at the treatment center, Mean (SD)",[2]; ITT Population,2.07 (1.112) Hours
same,"Time spent at the treatment center, Median",[2]; ITT Population,2.02 h
same,"Patient-rated pruritus severity score, 2 Hour Change from Baseline, mean (primary efficacy measure)",[2]; ITT Population,−1.50
same,"Patient-rated pruritus severity score, 2 Hour Change from Baseline, mean (primary efficacy measure)",[2]; [5],−1.50 (0.984)
same,"Patient-rated pruritus severity score, Baseline Assessment, mean",[2]; [6],2.19
same,"Physician-rated urticaria/erythema score, Baseline Assessment, mean",[2]; [6],1.84
same,"Subject-rated sedation score, Baseline Assessment, mean",[2]; [6],0.39
same,Subjects who returned to the treatment center: No,[2]; [7],116 (85.93)
same,Subjects who returned to the treatment center: Yes,[2]; [7],19 (14.07)
same,"Time spent at the treatment center, Mean (SD)",[2]; [5],2.1 (1.1) Hours
same,"Effectively treated subjects, yes","[2]; Investigator's opinion, count (percentage)",93 (68.89)
same,Proportion of patients returning to any emergency department or clinic,"[2]; clinical trials, treatment group",14%
same,"Subjects needed rescue drug, yes",[2]; count (percentage),37 (27.41)
same,"Pruritus treatment success, yes","[2]; score reduction of at least 1 unit at 2 hr, count (percentage)",111 (82.22)

# From patent US12268685B2, “Dosing regimen for injectable cetirizine” (JDP THERAPEUTICS LLC, priority 2019, dated 2025)
